The results in this text go back to US20230219986A1, “NOVEL AMINOPYRIMIDINE EGFR INHIBITOR” (QILU PHARMACEUTICAL CO., LTD., priority 2020, published 2023).

Like-named read-outs stand apart in the source and are kept apart here.

One assay has as its target T1, wild-type EGFR (Homo sapiens, UniProt P00533).
T1 construct: purchased Signalchem
The experiment in a line: Enzymology experiment in vitro (HTRF/FRET kinase activity), wild-type EGFR. Type of assay: biochemical. The following applies: HTRF KinEASE-TK. The method in brief: (§1)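 HTRF KinEASE-TK format: EGFR enzyme preincubated with compound 10 min at room temperature, then peptide substrate plus ATP added for 40 min. Detection with EDTA, XL665-streptavidin and Eu³⁺-labeled antibody for 1 h.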

For assay [1], the target named is T2, L858R/T790M/C797S triple mutant EGFR (Homo sapiens, UniProt P00533, C797S/L858R/T790M).
T2 construct: purchased Signalchem
T2 sequence (P00533 25-1210 T790M/C797S/L858R): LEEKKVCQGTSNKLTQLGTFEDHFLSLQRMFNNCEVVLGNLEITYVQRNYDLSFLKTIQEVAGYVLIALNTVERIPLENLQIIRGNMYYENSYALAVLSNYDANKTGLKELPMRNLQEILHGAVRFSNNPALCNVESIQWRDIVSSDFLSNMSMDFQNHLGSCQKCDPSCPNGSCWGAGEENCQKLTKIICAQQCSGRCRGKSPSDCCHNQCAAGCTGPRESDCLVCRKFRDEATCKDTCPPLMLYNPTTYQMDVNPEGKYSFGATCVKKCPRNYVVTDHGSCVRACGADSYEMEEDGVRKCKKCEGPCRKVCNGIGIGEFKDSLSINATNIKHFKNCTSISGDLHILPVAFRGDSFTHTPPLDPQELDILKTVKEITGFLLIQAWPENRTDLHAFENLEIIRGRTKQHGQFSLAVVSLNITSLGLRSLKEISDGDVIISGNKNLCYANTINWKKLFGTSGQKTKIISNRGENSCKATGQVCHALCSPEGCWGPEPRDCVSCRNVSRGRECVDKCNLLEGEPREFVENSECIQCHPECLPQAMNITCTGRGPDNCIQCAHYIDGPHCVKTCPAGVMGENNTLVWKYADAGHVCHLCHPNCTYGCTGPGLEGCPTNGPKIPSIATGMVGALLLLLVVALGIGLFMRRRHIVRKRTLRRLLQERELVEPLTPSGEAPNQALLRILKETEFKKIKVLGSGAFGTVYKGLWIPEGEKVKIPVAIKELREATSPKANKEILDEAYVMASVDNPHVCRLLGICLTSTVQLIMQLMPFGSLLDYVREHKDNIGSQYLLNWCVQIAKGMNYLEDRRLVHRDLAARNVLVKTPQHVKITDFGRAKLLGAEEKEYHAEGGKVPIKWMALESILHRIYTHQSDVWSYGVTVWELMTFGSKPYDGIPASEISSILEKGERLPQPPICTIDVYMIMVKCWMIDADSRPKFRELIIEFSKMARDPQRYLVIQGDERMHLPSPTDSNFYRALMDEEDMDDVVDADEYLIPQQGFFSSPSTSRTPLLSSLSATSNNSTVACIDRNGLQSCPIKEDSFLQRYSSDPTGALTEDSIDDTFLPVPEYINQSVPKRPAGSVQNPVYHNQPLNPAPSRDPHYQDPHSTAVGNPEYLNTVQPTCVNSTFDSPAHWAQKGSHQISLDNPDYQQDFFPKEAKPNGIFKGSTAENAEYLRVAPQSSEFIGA
The experiment in a line: Enzymology experiment in vitro (HTRF/FRET kinase activity), L858R/T790M/C797S triple mutant EGFR. Type of assay: biochemical. The note with it: HTRF KinEASE-TK. The method in brief:
as §1

Assay [2] concerns EGFR wild-type cell line A431. The experiment in a line: Cell proliferation inhibition experiment (CellTiter-Glo), A431. It counts as cell-based. The note with it: A431 cells, Cell Titer-Glo, read-out: A431 EGFR WT IC50. Put shortly:
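A431 cells, 800 per well, were cultured 24 h and then exposed to serially diluted compound (0.1% DMSO final) for 72 h at 37° C., 5% CO2.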
For orientation: In ATP-based viability assays light output follows the ATP content of the culture.

Assay [3] addresses Ba/F3 De119/T790M/C797S EGFR triple mutant cell line (Homo sapiens, UniProt P00533, T790M/C797S, cells depend on it, form not given). In words: Cell proliferation inhibition experiment (CellTiter-Glo), Ba/F3 De119/T790M/C797S. Type of assay: cell-based. The following applies: Ba/F3 Del19/T790M/C797S EGFR triple mutant cells, 72 hours, Cell Titer-Glo; read-out: Ba/F3 (Del19/T790M/C797S) IC50.

Assay [4] deals with Ba/F3 L858R/T790M/C797S EGFR triple mutant cell line (Homo sapiens, UniProt P00533, T790M/C797S/L858R, cells depend on it). The experiment in a line: Cell proliferation inhibition experiment (CellTiter-Glo), Ba/F3 L858R/T790M/C797S. Type of assay: cell-based. The note with it: 72 hours, Cell Titer-Glo, read-out: Ba/F3 (L858R/T790M/C797S) IC50.
Chain of Ba/F3 L858R/T790M/C797S EGFR triple mutant cell line (P00533 whole entry T790M/C797S/L858R): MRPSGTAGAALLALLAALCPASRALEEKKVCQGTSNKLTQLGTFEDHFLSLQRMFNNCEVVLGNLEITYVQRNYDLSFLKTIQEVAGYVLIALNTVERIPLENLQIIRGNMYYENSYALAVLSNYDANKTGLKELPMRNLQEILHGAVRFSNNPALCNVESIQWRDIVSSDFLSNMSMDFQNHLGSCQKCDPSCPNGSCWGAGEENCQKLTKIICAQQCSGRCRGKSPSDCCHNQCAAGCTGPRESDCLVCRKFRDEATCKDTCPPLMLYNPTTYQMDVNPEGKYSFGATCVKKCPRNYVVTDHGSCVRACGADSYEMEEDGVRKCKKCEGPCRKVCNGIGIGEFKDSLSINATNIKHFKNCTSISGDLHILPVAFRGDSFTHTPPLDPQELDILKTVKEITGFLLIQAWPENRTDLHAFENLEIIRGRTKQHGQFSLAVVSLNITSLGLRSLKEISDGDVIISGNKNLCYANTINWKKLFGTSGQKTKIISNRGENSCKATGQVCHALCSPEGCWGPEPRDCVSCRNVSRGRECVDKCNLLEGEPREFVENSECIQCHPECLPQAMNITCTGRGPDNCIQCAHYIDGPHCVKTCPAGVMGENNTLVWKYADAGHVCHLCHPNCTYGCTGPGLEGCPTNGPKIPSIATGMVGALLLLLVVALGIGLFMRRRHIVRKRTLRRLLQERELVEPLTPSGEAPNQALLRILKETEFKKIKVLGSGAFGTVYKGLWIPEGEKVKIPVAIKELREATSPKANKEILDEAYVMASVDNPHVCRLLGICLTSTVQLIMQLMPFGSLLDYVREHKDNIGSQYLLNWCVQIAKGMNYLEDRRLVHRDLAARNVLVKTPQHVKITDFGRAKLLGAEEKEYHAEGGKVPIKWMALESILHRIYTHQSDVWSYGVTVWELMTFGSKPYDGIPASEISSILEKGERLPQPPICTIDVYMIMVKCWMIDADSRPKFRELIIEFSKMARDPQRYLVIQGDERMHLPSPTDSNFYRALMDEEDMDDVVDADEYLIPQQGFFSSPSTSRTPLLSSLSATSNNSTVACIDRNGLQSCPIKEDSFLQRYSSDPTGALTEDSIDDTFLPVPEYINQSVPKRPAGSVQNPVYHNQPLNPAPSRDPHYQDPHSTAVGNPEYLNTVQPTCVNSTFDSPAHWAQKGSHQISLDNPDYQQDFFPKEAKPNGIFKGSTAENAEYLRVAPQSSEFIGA
[5] abbreviates: read-out: EGFR (L858R/T790M/C797S) IC50.

T1 sequence (P00533 25-1210): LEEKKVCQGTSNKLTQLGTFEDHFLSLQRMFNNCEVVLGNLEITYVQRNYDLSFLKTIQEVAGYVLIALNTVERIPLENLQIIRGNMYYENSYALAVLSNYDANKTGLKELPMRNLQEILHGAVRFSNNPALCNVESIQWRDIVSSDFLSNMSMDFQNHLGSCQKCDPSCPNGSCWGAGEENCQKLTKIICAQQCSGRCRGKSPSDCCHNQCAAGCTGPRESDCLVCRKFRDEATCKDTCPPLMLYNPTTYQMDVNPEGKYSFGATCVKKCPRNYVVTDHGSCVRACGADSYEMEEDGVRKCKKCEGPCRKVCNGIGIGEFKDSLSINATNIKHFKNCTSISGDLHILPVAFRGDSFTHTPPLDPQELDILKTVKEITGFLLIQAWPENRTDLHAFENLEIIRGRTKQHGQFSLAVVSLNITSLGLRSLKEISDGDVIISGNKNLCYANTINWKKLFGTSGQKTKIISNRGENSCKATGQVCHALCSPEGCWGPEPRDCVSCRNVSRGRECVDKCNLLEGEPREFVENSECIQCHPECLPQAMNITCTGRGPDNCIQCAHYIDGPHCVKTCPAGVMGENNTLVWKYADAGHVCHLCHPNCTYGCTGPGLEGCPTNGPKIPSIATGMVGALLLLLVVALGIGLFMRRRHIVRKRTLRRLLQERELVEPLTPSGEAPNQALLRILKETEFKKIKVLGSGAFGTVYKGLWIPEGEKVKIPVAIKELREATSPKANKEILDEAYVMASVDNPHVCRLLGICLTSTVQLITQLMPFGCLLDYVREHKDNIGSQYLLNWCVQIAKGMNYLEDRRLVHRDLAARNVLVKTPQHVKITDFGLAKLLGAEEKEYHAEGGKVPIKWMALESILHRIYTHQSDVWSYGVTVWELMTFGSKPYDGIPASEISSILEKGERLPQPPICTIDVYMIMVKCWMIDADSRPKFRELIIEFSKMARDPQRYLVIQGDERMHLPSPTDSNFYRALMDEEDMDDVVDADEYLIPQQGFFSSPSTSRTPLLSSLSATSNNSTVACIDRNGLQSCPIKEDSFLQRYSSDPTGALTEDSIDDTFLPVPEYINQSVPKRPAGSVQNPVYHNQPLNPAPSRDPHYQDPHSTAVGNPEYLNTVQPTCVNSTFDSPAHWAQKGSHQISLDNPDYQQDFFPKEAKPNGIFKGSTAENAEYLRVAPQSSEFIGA
Chain of Ba/F3 De119/T790M/C797S EGFR triple mutant cell line (P00533 with tags, fused parts or gaps DEL746-750/T790M/C797S, form open): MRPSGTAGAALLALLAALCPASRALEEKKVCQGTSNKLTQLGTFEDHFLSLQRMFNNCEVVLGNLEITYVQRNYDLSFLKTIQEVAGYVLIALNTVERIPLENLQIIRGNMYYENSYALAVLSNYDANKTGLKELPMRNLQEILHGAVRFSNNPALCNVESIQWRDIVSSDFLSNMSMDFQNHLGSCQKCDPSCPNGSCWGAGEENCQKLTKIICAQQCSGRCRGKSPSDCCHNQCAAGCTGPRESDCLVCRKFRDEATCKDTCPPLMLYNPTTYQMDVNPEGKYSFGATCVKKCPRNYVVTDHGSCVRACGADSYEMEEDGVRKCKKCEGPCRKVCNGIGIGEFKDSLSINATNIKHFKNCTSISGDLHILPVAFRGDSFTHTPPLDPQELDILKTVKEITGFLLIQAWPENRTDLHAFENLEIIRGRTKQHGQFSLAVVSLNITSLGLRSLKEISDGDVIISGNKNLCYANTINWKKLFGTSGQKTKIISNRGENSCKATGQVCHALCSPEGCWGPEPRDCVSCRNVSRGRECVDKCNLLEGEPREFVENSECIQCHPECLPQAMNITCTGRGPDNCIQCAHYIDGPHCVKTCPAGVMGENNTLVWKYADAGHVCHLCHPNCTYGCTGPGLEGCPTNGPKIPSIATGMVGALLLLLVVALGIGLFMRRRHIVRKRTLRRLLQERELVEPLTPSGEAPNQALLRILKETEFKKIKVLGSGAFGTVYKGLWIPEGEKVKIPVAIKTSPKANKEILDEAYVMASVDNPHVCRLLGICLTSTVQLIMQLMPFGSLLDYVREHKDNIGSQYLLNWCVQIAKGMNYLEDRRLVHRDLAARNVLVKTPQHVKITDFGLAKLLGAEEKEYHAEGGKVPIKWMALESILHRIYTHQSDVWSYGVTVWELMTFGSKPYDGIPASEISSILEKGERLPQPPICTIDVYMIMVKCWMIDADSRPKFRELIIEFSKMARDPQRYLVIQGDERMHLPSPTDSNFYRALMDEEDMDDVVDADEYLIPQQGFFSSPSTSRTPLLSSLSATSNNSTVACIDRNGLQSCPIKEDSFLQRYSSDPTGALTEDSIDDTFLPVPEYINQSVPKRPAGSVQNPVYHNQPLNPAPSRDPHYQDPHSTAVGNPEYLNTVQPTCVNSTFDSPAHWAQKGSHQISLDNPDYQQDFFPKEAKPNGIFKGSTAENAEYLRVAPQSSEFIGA

For `COc1cc(N2CCN(CCC(F)F)CC2)c(-c2cnn(C)c2)cc1Nc1ncc(Br)c(Nc2ccc3nccnc3c2P(C)(C)=O)n1` [compound 222, (6-((5-Bromo-2-((4-(4-(3,3-difluoropropyl)piperazin-1-yl)-2-methoxy-5-(1-methyl-1H-pyrazol-4-yl)phenyl)amino)pyrimidin-4-yl)amino)quinoxalin-5-yl)dimethylphosphine oxide], the IC50 at wild-type EGFR (read-out: EGFR (WT) IC50) is 4.22 nM; in assay [1] (setting [5]), 0.3 nM; in assay [2] (Homo sapiens, A-431, 72 h) it was 70.4 nM. For the same compound, the GI50 in assay [3] worked out at 1.22 nM; in assay [4], 2.02 nM.

Turning to `COc1cc(N2CCC3(CC2)CN(C(C)C)CC(C)(C)O3)c(-c2cnn(C)c2)cc1Nc1ncc(Br)c(Nc2ccc3nccnc3c2P(C)(C)=O)n1` [compound 224, (6-((5-Bromo-2-((4-(4-isopropyl-2,2-dimethyl-1-oxa-4,9-diazaspiro [5.5]undecane-9-yl)-2-methoxy-5-(1-methyl-1H-pyrazol-4-yl)phenyl)amino)pyrimidin-4-yl)amino)quinoxalin-5-yl)dimethylphosphine oxide], the IC50 at wild-type EGFR (read-out: EGFR (WT) IC50) is 10.7 nM; in assay [1] (setting [5]) it was 4.31 nM; in assay [2] (Homo sapiens, A-431, 72 h) it was 336 nM. Also, the GI50 in assay [3] is 8.88 nM; in assay [4], 13.2 nM.

Regarding `COc1cc(N2CCC(OCC3CC3)CC2)c(-c2cnn(C)c2)cc1Nc1ncc(Br)c(Nc2ccc3ncccc3c2P(C)(C)=O)n1` [compound 225], the IC50 stood at 10.8 nM on wild-type EGFR (read-out: EGFR (WT) IC50); 1.96 nM in assay [1] (setting [5]); 370 nM in assay [2] (Homo sapiens, A-431, 72 h). Besides, the GI50 in assay [3] was found to be 3.54 nM; in assay [4], 11.3 nM.

For the compound `CCN1CCC2(CC1)CCN(c1cc(OC)c(Nc3ncc(Br)c(Nc4ccc5nccnc5c4P(C)(C)=O)n3)cc1-c1cnn(C)c1)CC2` [compound 226], the IC50 on wild-type EGFR (read-out: EGFR (WT) IC50) was found to be 1.4 nM; in assay [1] (setting [5]), 0.19 nM; in assay [2] (Homo sapiens, A-431, 72 h) it was 47.4 nM. Further, the results for the GI50 in assay [3] and in assay [4] were 1.55 nM and 4.34 nM, respectively.

As to `COc1cc(N2CCC3CCN(CC4CC4)C3C2)c(-c2cnn(C)c2)cc1Nc1ncc(Br)c(Nc2ccc3nccnc3c2P(C)(C)=O)n1` (stereo not drawn) [compound 227], the IC50 at wild-type EGFR (read-out: EGFR (WT) IC50) is 2.69 nM; in assay [1] (setting [5]), 0.59 nM; in assay [2] (Homo sapiens, A-431, 72 h), 34.7 nM. Further, the GI50 in assay [3] was determined as 2.78 nM; in assay [4], 6.64 nM.

Regarding `COc1cc(N2CCC3(CC2)CCN(C(C)C)CC3)c(-c2cnn(C)c2)cc1Nc1ncc(Br)c(Nc2ccc3nccnc3c2P(C)(C)=O)n1` [compound 228], the IC50 was 1.04 nM on wild-type EGFR (read-out: EGFR (WT) IC50); 0.48 nM in assay [1] (setting [5]); 44.8 nM in assay [2] (Homo sapiens, A-431, 72 h). In addition, the GI50 in assay [3] turned out to be 4.58 nM; in assay [4] it was 8.5 nM.

Consider `COc1cc(N2CCN(C3(C)CC3)CC2)c(-c2cnn(C)c2)cc1Nc1ncc(Br)c(Nc2ccc3nccnc3c2P(C)(C)=O)n1` [compound 229], for which the IC50 at wild-type EGFR (read-out: EGFR (WT) IC50) was determined as 8.53 nM; in assay [1] (setting [5]), 0.42 nM; in assay [2] (Homo sapiens, A-431, 72 h) it was 164 nM. The GI50 in assay [3] was 3.76 nM; in assay [4] it was 12.1 nM.

Take `COc1cc(N2CCC3(CCN(CCF)CC3)CC2)c(-c2cnn(C)c2)cc1Nc1ncc(Br)c(Nc2ccccc2P(C)(C)=O)n1` [compound 230]: the IC50 came out at 12 nM at wild-type EGFR (read-out: EGFR (WT) IC50); 0.29 nM in assay [1] (setting [5]); 126 nM in assay [2] (Homo sapiens, A-431, 72 h). Besides, the GI50 in assay [3] was 4.47 nM; in assay [4] it was 10.1 nM.

On to `COc1cc(N2CCC3(CCN(CCF)CC3)CC2)c(-c2cnn(C)c2F)cc1Nc1ncc(Br)c(Nc2ccc3nccnc3c2P(C)(C)=O)n1` [compound 231], for which the IC50 on wild-type EGFR (read-out: EGFR (WT) IC50) worked out at 1.12 nM; in assay [1] (setting [5]), 0.37 nM; in assay [2] (Homo sapiens, A-431, 72 h), 40.1 nM. In addition, the GI50 in assay [3] worked out at 1.08 nM; in assay [4] it was 1.12 nM.

Take `COCCN1CCN(C2CCN(c3cc(OC)c(Nc4ncc(Br)c(Nc5ccc6nccnc6c5P(C)(C)=S)n4)cc3-c3cnn(C)c3)CC2)CC1` [compound 232]: the IC50 was found to be 4.11 nM on wild-type EGFR (EGFR (WT) IC50(nM)); 0.58 nM in assay [1] (EGFR (L858R/T790M/C797S) IC50(nM)); 126 nM in assay [2] (Homo sapiens, A-431, 72 hours). Further, the results for the GI50 in assay [3] and in assay [4] were 3.16 nM and 8.59 nM, respectively.

As to `COc1cc(N2CCC3(CCN(CCF)CC3)CC2)c(-c2cnn(C)c2)cc1Nc1ncc(Cl)c(Nc2ccc3nccnc3c2P(C)(C)=O)n1` [compound 233], the IC50 at wild-type EGFR (read-out: EGFR (WT) IC50) came out at 2.49 nM; in assay [1] (setting [5]) it was 0.26 nM; in assay [2] (Homo sapiens, A-431, 72 h), 79.5 nM. The GI50 was 1.74 nM in assay [3] and 3.54 nM in assay [4].

Take `COc1cc(N2CCN(CC3CC3)CC2)c(-c2cnn(C)c2)cc1Nc1ncc(Br)c(Nc2ccc3nccnc3c2P(C)(C)=O)n1` [compound 235]: the IC50 stood at 10.5 nM at wild-type EGFR (read-out: EGFR (WT) IC50), 0.27 nM in assay [1] (setting [5]) and 89 nM in assay [2] (72 hours). The GI50 in assay [3] worked out at 8.53 nM; in assay [4], 24.8 nM.

On to `COc1cc(N2CCN(CC3CC3)CC2)c(-c2cnn(C)c2)cc1Nc1ncc(Br)c(Nc2ccc3cncnc3c2P(C)(C)=O)n1` [compound 236], for which the IC50 was found to be 11 nM at wild-type EGFR (read-out: EGFR (WT) IC50); 0.21 nM in assay [1] (setting [5]); 91.5 nM in assay [2] (Homo sapiens, A-431, 72 h). Besides, the GI50 turned out to be 5.45 nM in assay [3] and 12.7 nM in assay [4].

`COc1cc(N2CCN(CC3(C#N)CC3)CC2)c(-c2cnn(C)c2)cc1Nc1ncc(Br)c(Nc2ccc3nccnc3c2P(C)(C)=O)n1` [compound 237, 1-((4-(4-((5-Bromo-4-((5-(dimethylphosphoryl)quinoxalin-6-yl)amino)pyrimidin-2-yl)amino)-5-methoxy-2-(1-methyl-1H-pyrazol-4-yl)phenyl)piperazin-1-yl)methyl)cyclopropane-1-carbonitrile]: the IC50 came to 5.2 nM on wild-type EGFR (read-out: EGFR (WT) IC50); 0.52 nM in assay [1] (setting [5]); 129 nM in assay [2] (Homo sapiens, A-431, 72 h). For the same compound, the GI50 in assay [3] was 1.26 nM; in assay [4] it was 3.05 nM.

With `COc1cc(N2CCC3(CCN(CCF)CC3)CC2)c(-c2cnn(C)c2)cc1Nc1ncc(Br)c(Nc2ccc3ncccc3c2P(C)(C)=O)n1` [compound 238], the IC50 on wild-type EGFR (read-out: EGFR (WT) IC50) came to 3.02 nM; in assay [1] (setting [5]) it was 0.3 nM; in assay [2] (Homo sapiens, A-431, 72 h), 61.9 nM. The GI50 in assay [3] was determined as 1.83 nM; in assay [4], 3.59 nM.

On to `COc1cc(N2CCC(C)(OC)CC2)c(-c2cnn(C)c2)cc1Nc1ncc(Cl)c(Nc2ccc3nccnc3c2P(C)(C)=O)n1` [compound 239], for which the IC50 on wild-type EGFR (read-out: EGFR (WT) IC50) stood at 7.57 nM; in assay [1] (setting [5]), 1.6 nM; in assay [2] (Homo sapiens, A-431, 72 h), 141 nM. Also, the GI50 in assay [3] came out at 2.1 nM; in assay [4], 4.61 nM.

With `COc1cc(N2CCC(C)(OC)CC2)c(-c2cnn(C)c2)cc1Nc1ncc(Br)c(Nc2ccccc2P(C)(C)=O)n1` [compound 240], the IC50 was 29.9 nM on wild-type EGFR (read-out: EGFR (WT) IC50); 0.51 nM in assay [1] (setting [5]); 304 nM in assay [2] (Homo sapiens, A-431, 72 h). Moreover, the GI50 in assay [3] was 8.2 nM; in assay [4] it was 19.2 nM.

Take `COc1cc(N2CCC(C)(OC)CC2)c(-c2c[nH]n(C)c2=O)cc1Nc1ncc(Br)c(Nc2ccc3nccnc3c2P(C)(C)=O)n1` [compound 241]: the IC50 amounted to 30.1 nM on wild-type EGFR (read-out: EGFR (WT) IC50); 0.13 nM in assay [1] (setting [5]); 182 nM in assay [2] (Homo sapiens, A-431, 72 h). In addition, the GI50 is 2.92 nM in assay [3] and 12.3 nM in assay [4].

In the case of `COc1cc(N2CCC3(CCN(CC4(C#N)CC4)CC3)CC2)c(-c2cnn(C)c2)cc1Nc1ncc(Br)c(Nc2ccc3nccnc3c2P(C)(C)=O)n1` [compound 244, 1-((9-(4-((5-Bromo-4-((5-(dimethylphosphoryl)quinoxalin-6-yl)amino)pyrimidin-2-yl)amino)-5-methoxy-2-(1-methyl-1H-pyrazol-4-yl)phenyl)-3,9-diazaspiro[5.5]undecan-3-yl)methyl)cyclopropane-1-carbonitrile], the IC50 amounted to 2.74 nM at wild-type EGFR (read-out: EGFR (WT) IC50); 0.78 nM in assay [1] (setting [5]); 125 nM in assay [2] (Homo sapiens, A-431, 72 h). Further, the GI50 worked out at 1.19 nM in assay [3] and 2.43 nM in assay [4].

Turning to `COc1cc(N2CCC3(CCN(CC(F)(F)F)CC3)CC2)c(-c2cnn(C)c2)cc1Nc1ncc(Br)c(Nc2ccc3nccnc3c2P(C)(C)=O)n1` [compound 245], the IC50 on wild-type EGFR (read-out: EGFR (WT) IC50) stood at 105 nM; in assay [1] (setting [5]), 2.8 nM; in assay [2] (Homo sapiens, A-431, 72 h), 747 nM. In addition, the figures for the GI50 in assay [3] and in assay [4] were 5.35 nM and 11.6 nM, respectively.

Take `COc1cc(N2CCC3(CC2)CCN(C(C)CF)CC3)c(-c2cnn(C)c2)cc1Nc1ncc(Br)c(Nc2ccc3nccnc3c2P(C)(C)=O)n1` (stereo not drawn) [compound 246]: the IC50 was 1.05 nM on wild-type EGFR (read-out: EGFR (WT) IC50); 0.4 nM in assay [1] (setting [5]); 128 nM in assay [2] (Homo sapiens, A-431, 72 h). The GI50 amounted to 2.59 nM in assay [3] and 3.64 nM in assay [4].
